This note sets out measurements from patent US11130780B2, “Inhibitors of growth factor activation enzymes” (Washington University, priority 2015, dated 2021).

Like-named read-outs stand apart in the source and are kept apart here. Positions of bridges follow the written chain, without caps; N, C: chain ends. Residues, ends and D or L forms follow the SMILES beside them. *: point of attachment. X2 = N=C(N)NCCC[C@H](N*)C(=O)c1nccs1

Format in all cases: biochemical
In test [1] the target is T1, HGFA (Homo sapiens, UniProt Q04756).
T1 construct: His6 tag (N); seven amino acid spacer and seven amino acid TEV cleavage site (N); Honey Bee melittin signal peptide (N); made in house; host or cells: High 5 insect cells (baculovirus; virus raised in Sf9)
T1 sequence (Q04756 373-655): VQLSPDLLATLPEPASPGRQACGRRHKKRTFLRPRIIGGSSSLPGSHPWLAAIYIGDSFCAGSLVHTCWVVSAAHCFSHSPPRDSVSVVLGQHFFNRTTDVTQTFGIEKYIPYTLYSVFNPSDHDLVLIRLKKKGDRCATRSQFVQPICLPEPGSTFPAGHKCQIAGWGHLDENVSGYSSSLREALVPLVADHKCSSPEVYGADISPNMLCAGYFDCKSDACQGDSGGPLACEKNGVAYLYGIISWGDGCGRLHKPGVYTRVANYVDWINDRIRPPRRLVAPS
Put plainly: Fluorescent kinetic enzyme inhibitor assay of HGFA. Particulars: read-out: HGFA Ki. From the text:
Using primers identified as SEQ ID NO 1, SEQ ID NO 2, and standard PCR protocols, the nucleotide sequence encoding amino acids 373-655 of HGFA was synthesized. This PCR product was cloned into the SfoI-HindIII sites of a modified pFastBac HT baculovirus expression vector (Addgene, Cambridge, Mass.). This vector contains a six amino His tag followed by a seven amino spacer and a seven amino acid TEV cleavage site placed immediately downstream of the Honey Bee melittin signal peptide. Using a modified Bac to Bac Expression System (Life Technologies, Carlsbad, Calif.), recombinant HGFA bacmids were obtained by transforming DH10Bac Escherichia coli cells. To obtain HGFA containing baculovirus, purified bacmids were transfected into Sf9 insect cells. After 5 days in culture at 27° C., media was harvested from transfected Sf9 cells. This media was used to prepare baculovirus infected insect cells (BIICs). These BIIICs were used to infect High 5 insect cells. Four days post infection, media was harvested and recombinant protein prepared as follows. Media was chilled to 4° C. and spun at 4000×g for 20 minutes (all subsequent steps were performed at 4° C. unless noted). Clarified media was passed first through a Whatman GF/B 1 um (#1821-047, GE Healthcare Life Sciences, Piscataway, N.J.) and then a 0.22 um PES membrane (#99955, TPP Techno Plastic Products AG, Trasadingen, Switzerland) and then concentrated using a Pall Centramate tangential flow system and Centramate T-series Cassette (#OS010T12, Pall Corporation, Port Washington, N.Y.). Concentrated media was then buffer exchanged in two steps, five volumes of 50 mM Na-phosphate, 500 mM NaCl, pH 6.2, followed by five volumes of 50 mM Na-phosphate, 500 mM NaCl, pH 7.5. The concentrated and buffered exchanged insect cell media was again filtered as above and made 25 mM imidazole (#1202, Sigma-Aldrich, St. Louis, Mo.) and was mixed with nickel agarose beads (#H-321-25, Gold Biotechnology, Inc., St. Louis Mo.). After mixing this slurry for 12 hours, nickel agarose beads were allowed to settle by gravity and then loaded into a column. Beads were washed with buffer (25 mM Na-phosphate, 500 mM NaCl, 25 mM imidazole, pH 8) and the bound protein eluted using (25 mM Na-phosphate, 500 mM NaCl, 250 mM imidazole, pH 8). Using a Amicon Ultra-4 Centrifugal filters (#UFC801008, Merck Millipore, Ltd., Tullagreen, Ireland), peak protein fractions were concentrated and run over a Superdex-200 10/300 GL column (GE Healthcare Life Sciences, Piscataway, N.J.) in 10 mM Tris, 200 mM NaCl, 0.2 mM EDTA, pH 8. HGFA containing fractions were pooled, concentrated, made 50% glycerol, and stored at minus 20° C. Protein was quantitated using a modified Lowry protein assay (#500-0006, Bio-Rad Laboratories, Hercules, Calif.).
Inhibitors (11-pt serial dilutions, 0-20 μM final concentration in reaction) were serially diluted in DMSO (2% DMSO final concentration) and then mixed with either recombinant serine protease domain of HGFA [Z. Han, P. K. Harris, D. E. Jones, R. Chugani, T. Kim, M. Agarwal, W. Shen, S. A. Wildman, J. W. Janetka, Acs Med Chem Lett 2014, 5, 1219-1224], matriptase (Charles Craik, UCSF) or hepsin* (#4776-SE-010, R&D Systems, Minneapolis, Minn.) in black 384 well plates (Corning #3575. Corning, N.Y.). […] The final substrate concentrations for all assays were at the Km for the respective enzymes. Changes in fluorescence (excitation at 380 nm and emission at 460 nm) were measured at room temperature over time in a Biotek Synergy 2 plate reader (Winnoski, Vt.). Using GraphPad Prism version 6.04 software program, (GraphPad Software, San Diego, Calif., www.graphpad.com), a four parameter curve fit was used to determine the inhibitor IC50s from a plot of the mean reaction velocity versus the inhibitor concentration. The IC50 values represent the average of three separate experimental determinations.

The target of test [2] is T2, HGFA (Homo sapiens, UniProt Q04756).
T2 sequence (Q04756 408-655 limits assumed): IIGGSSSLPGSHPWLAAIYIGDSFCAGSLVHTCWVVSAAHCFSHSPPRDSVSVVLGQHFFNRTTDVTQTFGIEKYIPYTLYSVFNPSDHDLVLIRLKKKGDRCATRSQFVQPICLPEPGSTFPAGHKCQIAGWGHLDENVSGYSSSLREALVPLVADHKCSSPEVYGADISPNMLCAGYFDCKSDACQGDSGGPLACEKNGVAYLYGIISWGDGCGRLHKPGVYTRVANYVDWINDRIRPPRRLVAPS
T2 sequence (Q04756 373-407 partner limits assumed): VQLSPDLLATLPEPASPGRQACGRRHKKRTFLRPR
In words: P4-P2 substrate specificity using HyCoSuL, HGFA. Conditions: HyCoSuL substrate library. Set-up: P3 Position % Activity HGFA / P2 Position % Activity HGFA: concentration or dose not given beside the values; P4 Position % Activity HGFA: tested at 100 µM. On the procedure:
(§1) Each of the P4, P3, and P2 sublibraries were screened at the 100 μM concentration with hepsin either HGFA in a 100 μL final volume per well (99 μL of protease in buffer+1 μL of 10 mM substrates mixture). The total time of the assay was 30 minutes, however only linear portions of the progress curve (5-15 minutes) were used for velocity (RFU/s) calculations. Each sublibrary screening was repeated at least 3-times and the average value calculated from each measurement was used to create the substrate specificity matrix—the best recognized amino acid in each position was set to 100%, and other amino acids were adjusted accordingly.
HFGA enzyme was diluted in the assay buffer (0.15 M NaCl, 0.025 M Tris, 0.005 M CaCl2, pH=8.0) to the final concentration of 10-20 nM (depending of sublibrary) and incubated at 25° C. for 30 minutes before added to a substrate.

In a further test the target is T3, hepsin (Homo sapiens, UniProt P05981).
T3 construct: purchased R&D Systems 4776-SE-010
T3 sequence (P05981 163-417 limits assumed): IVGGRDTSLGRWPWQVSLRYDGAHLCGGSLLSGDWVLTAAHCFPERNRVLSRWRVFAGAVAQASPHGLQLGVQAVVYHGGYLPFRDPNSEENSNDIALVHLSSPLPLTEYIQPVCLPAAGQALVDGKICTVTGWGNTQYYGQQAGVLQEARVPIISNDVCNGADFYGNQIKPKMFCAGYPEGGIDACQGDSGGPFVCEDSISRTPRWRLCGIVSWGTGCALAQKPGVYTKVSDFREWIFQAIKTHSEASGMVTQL
T3 sequence (P05981 45-162 partner limits assumed): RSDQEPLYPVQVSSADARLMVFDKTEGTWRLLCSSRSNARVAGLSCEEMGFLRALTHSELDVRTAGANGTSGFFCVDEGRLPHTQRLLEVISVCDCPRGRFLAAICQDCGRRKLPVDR
In words: P4-P2 substrate specificity using HyCoSuL, hepsin. Set-up: concentration or dose not given beside the values. Particulars: HyCoSuL substrate library. As to the method: as §1
Recombinant human hepsin (10 μg in 20 uL, 4776-SE-010, R&D Systems) was added to the 100 μL of activation buffer (0.1 M Tris, 0.15 M NaCl, 0.01 M CaCl2, 0.05% TRITON-X, pH=8.0) and incubated at 37° C. for 24 hours (hepsin concentration in activation buffer 2 μM). Once activated hepsin was diluted in assay buffer (0.05 M Tris, pH=9.0) to the final concentration of 4 nM and incubated at 37° C. for 15 minutes before added to a substrate.

Setting [3] is: amino acid fixed at P2 position.
Setting [4] is: amino acid fixed at P3 position.
[5] abbreviates: amino acid fixed at P4 position.

For orientation: Ki means a measure of affinity in units of concentration, obtained from inhibition or displacement. For the compound `N=C(N)NCCC[C@H](NC(=O)[C@H](Cc1ccccc1)NC(=O)[C@@H](N)Cc1c[nH]c2ccccc12)C(=O)c1nc2ccccc2s1` [Compound 1-13A1, H-WFR-kbt], the inhibition constant (Ki) at HGFA [1] (Table 6.1, Fluorogenic Assay) stood at 5.68 µM. With `CC(C)C[C@H](NC(=O)[C@H](N)Cc1c[nH]c2ccccc12)C(=O)N[C@@H](CCCNC(=N)N)C(=O)c1nc2ccccc2s1` [Compound 1-15A1, H-dWLR-kbt], at HGFA [1] (Table 6.1, Fluorogenic Assay), the inhibition constant (Ki) turned out to be 0.128 µM. On the same count and under the same terms, the value for `N=C(N)NCCC[C@H](NC(=O)[C@H](Cc1ccccc1)NC(=O)[C@H](N)Cc1c[nH]c2ccccc12)C(=O)c1nc2ccccc2s1` [Compound 1-18A1, H-dWFR-kbt] was 2.25 µM; that for `CC(C)C[C@H](NC(=O)[C@H](Cc1c[nH]c2ccccc12)NC(=O)[C@@H](N)Cc1cncn1COCc1ccccc1)C(=O)N[C@@H](CCCNC(=N)N)C(=O)c1nc2ccccc2s1` [Compound 1-54A1, H-His(Bom)WLR-kbt] was 3.71 µM. `CC(C)C[C@H](NC(=O)[C@@H](N)Cc1c[nH]c2ccccc12)C(=O)N[C@@H](CCCNC(=N)N)C(=O)c1nc2ccc(C(=O)O)cc2s1` [Compound 1-56A1, H-WLR-kbt-COOH]: the inhibition constant Ki at HGFA [1] (Table 6.1, Fluorogenic Assay) worked out at 1.38 µM. As to `CC(C)C[C@H](NC(=O)[C@H](N)Cc1c[nH]c2ccccc12)C(=O)N[C@@H](CCCNC(=N)N)C(=O)c1nc2ccc(C(=O)O)cc2s1` [Compound 1-57A1, H-dWLR-kbt-COOH], at HGFA [1] (Table 6.1, Fluorogenic Assay), the inhibitory constant (Ki) came to 0.346 µM. Still for that read-out and setting: the figure for `CC(C)C[C@H](NC(=O)[C@H](CCCNC(=N)N)NC(=O)[C@H](CCCCN)NC(=O)CCCCC[N+]1=C(/C=C/C=C/C=C2/N(C)c3ccc4ccccc4c3C2(C)C)C(C)(C)c2c1ccc1ccccc21)C(=O)N[C@@H](CCCNC(=N)N)C(=O)c1nc2ccccc2s1` [Compound 1178-2, Cy5.5-KRLR(SEQ ID NO: 8)-kbt] is 0.608 µM; for `CC(C)C[C@H](NC(=O)[C@H](CCCNC(=N)N)NC(=O)[C@H](CCCCN)NC(=O)CCCCC[N+]1=C(/C=C/C=C/C=C2/N(C)c3ccc4ccccc4c3C2(C)C)C(C)(C)c2c1ccc1ccccc21)C(=O)N[C@@H](CCCNC(=N)N)C(=O)CCl` [Compound 1179, Cy5.5-KRLR(SEQ ID NO: 8)-cmk] it is 0.0341 µM. As for `N=C(N)NCCC[C@H](NC(=O)[C@@H]1CC(=O)NCCCC[C@H](N)C(=O)N[C@@H](CCC(N)=O)C(=O)N1)C(=O)N[C@@H](CCCNC(=N)N)C(=O)c1nccs1` [Compound 7074, (2S,5S,13S)-13-amino-2-(3-amino-3-oxopropyl)-N—((S)-5-guanidino-1-(((S)-5-guanidino-1-oxo-1-(thiazol-2-yl)pentan-2-yl)amino)-1-oxopentan-2-yl)-3,7,14-trioxo-1,4,8-triazacyclotetradecane-5-carboxamide] (H-KQDR-X2; lactam 1-3), the inhibition constant Ki on HGFA [1] (Table 7.1, first HGFA column) was found to be 5.94 µM; at HGFA [1] (Table 7.1, second column headed HGFA), 0.00155 µM.

Take `N=C(N)NCCC[C@H](NC(=O)[C@H](CC(N)=O)NC(=O)OCC1c2ccccc2-c2ccccc21)C(=O)c1nc2ccccc2s1` [Compound 7185-3, Fmoc-NR-kbt]: the Ki at HGFA [1] (Table 6.1, Fluorogenic Assay) was > 20 µM. `N=C(N)NCCC[C@H](NC(=O)[C@H](CC(=O)O)NC(=O)OCC1c2ccccc2-c2ccccc21)C(=O)c1nc2ccccc2s1` [Compound 7185-4, Fmoc-DR-kbt]: the Ki at HGFA [1] (Table 6.1, Fluorogenic Assay) was > 20 µM. Turning to `N=C(N)NCCC[C@H](NC(=O)[C@H](CCC(=O)O)NC(=O)OCC1c2ccccc2-c2ccccc21)C(=O)c1nc2ccccc2s1` [Compound 7185-7, Fmoc-ER-kbt], the Ki at HGFA [1] (Table 6.1, Fluorogenic Assay) was > 20 µM. Turning to `N=C(N)NCCC[C@H](NC(=O)[C@H](Cc1cnc[nH]1)NC(=O)OCC1c2ccccc2-c2ccccc21)C(=O)c1nc2ccccc2s1` [Compound 7185-9, Fmoc-HR-kbt], at HGFA [1] (Table 6.1, Fluorogenic Assay), the Ki was 6.36 µM. `CC[C@H](C)[C@H](NC(=O)OCC1c2ccccc2-c2ccccc21)C(=O)N[C@@H](CCCNC(=N)N)C(=O)c1nc2ccccc2s1` [Compound 7185-10, Fmoc-IR-kbt]: the Ki on HGFA [1] (Table 6.1, Fluorogenic Assay) amounted to 6.47 µM. Consider `N=C(N)NCCC[C@H](NC(=O)[C@H](CCCCN)NC(=O)OCC1c2ccccc2-c2ccccc21)C(=O)c1nc2ccccc2s1` [Compound 7185-12, Fmoc-KR-kbt], for which the Ki on HGFA [1] (Table 6.1, Fluorogenic Assay) is > 20 µM. In the case of `N=C(N)NCCC[C@H](NC(=O)[C@@H]1CCCN1C(=O)OCC1c2ccccc2-c2ccccc21)C(=O)c1nc2ccccc2s1` [Compound 7187-15, Fmoc-PR-kbt], the Ki at HGFA [1] (Table 6.1, Fluorogenic Assay) was > 20 µM. Same read-out and setting: the figure for `N=C(N)NCCC[C@H](NC(=O)[C@H](CO)NC(=O)OCC1c2ccccc2-c2ccccc21)C(=O)c1nc2ccccc2s1` [Compound 7187-16, Fmoc-SR-kbt] is > 20 µM. The same measure, in the same setting: the value for `C[C@@H](O)[C@H](NC(=O)OCC1c2ccccc2-c2ccccc21)C(=O)N[C@@H](CCCNC(=N)N)C(=O)c1nc2ccccc2s1` [Compound 7188-17, Fmoc-TR-kbt] was > 20 µM.

D-Arg: the “P2 Position % Activity HGFA” value at HGFA [2] (setting [3]) came out at 0.00%. Further, the “P3 Position % Activity HGFA” value at HGFA [2] (setting [4]) came out at 29.10%. Also, the “P4 Position % Activity HGFA” value on HGFA [2] (setting [5]) is 23.20%. In addition, the “P2 Position % Activity Hepsin” value on hepsin (setting [3]) was 0.00%. In addition, the “P3 Position % Activity Hepsin” value on hepsin (setting [4]) was determined as 66.08%. For the same compound, at hepsin (setting [5]), the “P4 Position % Activity Hepsin” value stood at 44.37%.
